Source: patent publication US20250282736A1, “SMALL MOLECULE MODULATORS OF HUMAN PREGNANE X RECEPTOR” (ST. JUDE CHILDREN'S RESEARCH HOSPITAL, priority 2022, published 2025)
Where two headings read alike, the source gives them in different places.

Assays:
hPXR [1] = target: T1, hPXR (Homo sapiens (Human), UniProt O75469); assay: cell-based hPXR inverse agonistic assay; settings: for inhibition at 10 µM: read-out: Inverse agonist (% inhibition at 10 μM)
hPXR [2] = target: T1, hPXR; assay: hPXR binding assay; settings: for inhibition at 10 µM: read-out: Binding (% inhibition at 10 μM)
hPXR [3] = target: T1, hPXR; assay: cell-based hPXR agonistic assay; settings: for Agonist (% activation at 10 μM): rifampicin at 10 μM as 100% activation, DMSO (0.3%) as 0%
hPXR [4] = target: T1, hPXR; assay: cell-based hPXR antagonistic assay; settings: for inhibition at 10 µM: read-out: Antagonist (% inhibition at 10 μM)
[5] = read-out: Agonist (EC50/μM), cell-based hPXR agonistic assay
[6] = read-out: Binding (IC50/μM), hPXR binding assay

T1 sequence (O75469 whole entry): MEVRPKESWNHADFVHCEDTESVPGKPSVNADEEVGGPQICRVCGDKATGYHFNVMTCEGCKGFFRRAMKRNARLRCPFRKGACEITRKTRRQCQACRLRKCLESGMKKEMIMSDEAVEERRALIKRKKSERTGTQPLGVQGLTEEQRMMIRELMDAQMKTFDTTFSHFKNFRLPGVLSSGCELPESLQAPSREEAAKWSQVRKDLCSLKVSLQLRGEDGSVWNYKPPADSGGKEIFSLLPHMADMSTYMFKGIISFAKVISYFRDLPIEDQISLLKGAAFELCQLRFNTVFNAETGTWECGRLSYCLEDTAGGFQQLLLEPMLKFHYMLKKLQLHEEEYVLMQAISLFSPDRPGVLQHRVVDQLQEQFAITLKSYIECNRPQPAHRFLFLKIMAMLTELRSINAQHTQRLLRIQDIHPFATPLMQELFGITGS

Compound	IC50 (hPXR [1]) [nM]	IC50 (hPXR [2]) [µM]	EC50 (hPXR [3]) [µM]	Agonist (% activation at 10 μM) (hPXR [3])	IC50 (hPXR [4]) [nM]	EC50 (hPXR [3]; [5]) [µM]	inhibition at 10 µM (hPXR [1]) [%]	inhibition at 10 µM (hPXR [2]) [%]	IC50 (hPXR [2]; [6]) [µM]	inhibition at 10 µM (hPXR [4]) [%]
CCCCOc1ccc(C(C)(C)C)cc1NC(=O)c1nnn(-c2cc(OC)cc(OC)c2)c1C [H16]	> 30000	> 30		(32 ± 4)%	> 30000	2.77 ± 0.47				
COc1ccc(OC)c(-n2nnc(C(=O)Nc3cc(C(C)(C)C)ccc3OCC(=O)OC(C)(C)C)c2C)c1 [B24, tert-butyl 2-(4-(tert-butyl)-2-(1-(2,5-dimethoxyphenyl)-5-methyl-1H-1,2,3-triazole-4-carboxamido)phenoxy)acetate]	> 30000		0.27	(77 ± 1)%	> 30000			74	0.5 ± 0.2	
COc1ccc(OC)c(-n2nnc(NS(=O)(=O)c3ccc(C(C)(C)C)cc3)c2C)c1 [K7]	> 30000		0.39	(68 ± 5)%	10700 ± 2390			92	0.33	25
CCC(C)Oc1ccc(C(C)(C)C)cc1NC(=O)c1nnn(-c2ccccc2OC)c1C (centres unmarked) [I3]	> 30000		0.066 ± 0.013	(25 ± 3)%	61 ± 11			88	0.0085 ± 0.0011	66
CCCCOc1ccc(C(C)(C)C)cc1NC(=O)c1nnn(-c2ccc3c(c2)OCO3)c1C [H18]	> 30000	> 30		(43 ± 8)%	> 30000	4.61 ± 1.18				
CCCC(CC)Oc1ccc(C(C)(C)C)cc1NC(=O)c1nnn(-c2cc(OC)ccc2OC)c1C (centres unmarked) [B34, N-(5-(Tert-Butyl)-2-(Hexan-3-yloxy)Phenyl)-1-(2,5-Dimethoxyphenyl)-5-Methyl-1H-1,2,3-Triazole-4-Carboxamide]	2.3 ± 0.8		> 30		12 ± 3		147	92	0.019	108
CCC(C)Oc1ccc(C(C)(C)C)cc1NC(=O)c1nnn(-c2cc(C)ccc2OC)c1C (centres unmarked) [G12]	> 30000		0.018	(17 ± 1)%	9.4			92	0.0076 ± 0.0031	73
COc1ccc(C)cc1-n1nnc(C(=O)Nc2ccc(O)c(C(C)(C)C)c2)c1C [G2, N-(3-(tert-butyl)-4-hydroxyphenyl)-1-(2-methoxy-5-methylphenyl)-5-methyl-1H-1,2,3-triazole-4-carboxamide]	480		> 30		930 ± 110		115	75	1.93 ± 0.3	108
CCCCOc1ccc(C(C)(C)C)cc1NC(=O)c1nnn(-c2cccnc2)c1C [H12]	> 30000			(44 ± 4)%	> 30000	4.28 ± 1.36		75	7.6 ± 2.06	
COc1ccc(OC)c(-n2nnc(C(=O)Nc3cc(OCCOCCOCCOCCN)cc(C(C)(C)C)c3)c2C)c1 [D35]	> 30000	> 30	> 30		19700 ± 7630					84
COc1ccc(C)cc1-n1nnc(C(=O)Nc2cc(O)cc(C(C)(C)C)c2)c1C [G7, N-(3-(tert-butyl)-5-hydroxyphenyl)-1-(2-methoxy-5-methylphenyl)-5-methyl-1H-1,2,3-triazole-4-carboxamide]	640		> 30		1310 ± 230		75	81	2.29 ± 0.83	103
COc1ccc(OC)c(-n2nnc(N(S(=O)(=O)c3ccc(C(C)(C)C)cc3)S(=O)(=O)c3ccc(C(C)(C)C)cc3)c2C)c1 [K8]	> 30000		0.19	(21 ± 3)%	1450 ± 200			70	0.14	49
CCCCOc1ccc(C(C)(C)C)cc1NC(=O)c1nnn(-c2cc(OC)ccc2Br)c1C [H10]	> 30000		> 30		> 30000			28	1.31	
CCC[C@@H](CC)Oc1ccc(C(C)(C)C)cc1NC(=O)c1nnn(-c2cc(OC)ccc2OC)c1C [M2, (R)—N-(5-(Tert-Butyl)-2-(Hexan-3-yloxy)Phenyl)-1-(2,5-Dimethoxyphenyl)-5-Methyl-1H-1,2,3-Triazole-4-Carboxamide]	8.4 ± 4		> 30		52 ± 10		130	88	0.019 ± 0.003	103

Other lines, results leading:

IC50 (hPXR [1]) [nM]	IC50 (hPXR [2]) [µM]	EC50 (hPXR [3]) [µM]	Agonist (% activation at 10 μM) (hPXR [3])	IC50 (hPXR [4]) [nM]	EC50 (hPXR [3]; [5]) [µM]	inhibition at 10 µM (hPXR [1]) [%]	inhibition at 10 µM (hPXR [2]) [%]	IC50 (hPXR [2]; [6]) [µM]	inhibition at 10 µM (hPXR [4]) [%]	Compound
> 30000	> 30	3.39 ± 0.14	(61 ± 4)%	> 30000						COc1ccc(OC)c(-n2nnc(NC(=O)Nc3ccc(C(C)(C)C)cc3)c2C)c1 [K3]
> 30000	> 30	0.79 ± 0.26	(29 ± 5)%	> 30000						COc1ccc(-n2nnc(C(=O)Nc3ccc(C)cc3)c2C)cc1 [E7]
> 30000	> 30	> 30		> 30000						COc1ccc(OC)c(-n2nnc(C(=O)Nc3ccc(CN4CCN(C)CC4)cc3)c2C)c1 [A17]
20600 ± 420		> 30		12000 ± 2000		53	73	1.36 ± 0.23	70	COc1ccc(OC)c(-n2nnc(C(=O)Nc3cc(C)ccc3OC)c2C)c1 [A25]
		> 30		260		89	81	0.018	96	COc1ccc(OC)c(-n2nnc(C(=O)Nc3cc(C(C)(C)C)ccc3OCC(C)C)c2C)c1 [B32]
> 30000	> 30	> 30		> 30000						COc1ccc(OC)c(-n2nnc(C(=O)Nc3cccc(N4CCOCC4)c3)c2C)c1 [A14]
820		> 30		1700		111	71	1.08 ± 0.36	105	COc1ccc(C)cc1-n1nnc(C(=O)Nc2ccc(OC)c(C(C)(C)C)c2)c1C [G3]
> 30000	> 30	1.44 ± 0.27	(35 ± 3)%	> 30000						COc1ccc(-n2nnc(C(=O)Nc3ccc(C(C)(C)C)cc3)c2C)cc1 [E6]
3730 ± 300	> 30	> 30		5320		126			105	COc1ccc(OC)c(-n2nnc(C(=O)Nc3cc(OCCCN4CCN(C)CC4)cc(C(C)(C)C)c3)c2C)c1 [D18]
> 30000	> 30	> 30		13400 ± 120					23	COc1ccc(OC)c(-n2nnc(C(=O)Nc3ccc4c(c3)Nc3ccccc3CC4)c2C)c1 [A23]
200		> 30		640 ± 100		115	57	0.53	109	COc1cc(NC(=O)c2nnn(-c3cc(C)ccc3OC)c2C)cc(C(C)(C)C)c1 [G8]
> 30000		2.44 ± 1.02	(32 ± 7)%	> 30000			22	14 ± 4.79		COc1ccc(OC)c(-n2nnc(C(=O)Nc3ccc(C)cc3)c2C)c1 [A2]
